{"source": "patent US7794972B2", "about": "“Benzoate-and anthranilate-inducible promoters” (priority 2002, dated 2010)", "format_in_all_cases": "cell-based, Pseudomonas fluorescens", "key": {"[1]": {"system": "Pant promoter (Pant713, antR/Pant)", "experiment": "Anthranilate promoter (Pant) reporter gene induction (lacZ / phoA)", "settings": "for induction of the anthranilate promoter: P. fluorescens, reporter gene lacZ or phoA", "method": "(§1) Cell growth for induction: Strains of interest were grown overnight (at 30° C. with shaking at 250 rpm) in 1×M9 minimal salts medium (diluted from a 5× preparation purchased from Fisher Scientific, Pittsburgh, Pa.) supplemented with 0.5% or 1% (w/v) glucose, 1 mM MgSO4, and trace elements (for trace elements, the present examples used a solution containing salts of sodium, magnesium, manganese, iron, and cobalt, all at less than 0.5 mg/mL final concentration). Strains were then subcultured 1:4 in the same medium to a volume of 10 or 20 mL and then induced with 0-10 mM concentrations of anthranilate or benzoate, as indicated.\n(§2) Strains of interest were grown overnight at 30° C. in 1×M9 medium supplemented with 0.5% or 1% (w/v) glucose, 1 mM MgSO4, and 5L/L trace elements (as described above), and optionally tetracycline at 15 ug/mL. These were then subcultured 1:4 or 1:5 in the same medium and then induced with indicated concentrations of anthranilate, benzoate, or other inducer, for a desired amount of time (e.g., for 2, 4, 6, 8, 12, or 24 hours, or overnight). Samples were taken at indicated times and those samples were assayed for reporter gene activity. Results are reported at time points taken at a given number of hours post-induction; time points are indicated by either a numeral for the number of hours, and in some cases this number is immediately preceded by the letter “I” indicating post-induction.\n(§3) We prepared enough of the following assay medium to provide for each sample well of a 96-well plate (i.e. for all those wells used, with at least one well being used for each time point measured during the reaction course for each sample): 152 μL Z buffer (0.06M Na2HPO4.7H2O, 0.04M NaH2PO4.H2O, 0.01M KCl, 0.001M MgSO4.7H2O)+8 μL 1M β-mercaptoethanol. For each 900 μL of the resulting mix, we added one drop of 0.1%SDS and two drops of CHCl3, mixed (using a vortex-type mixer), and then added 144 μL thereof to each well. 16 μL of cells were then added to each well and the plate sealed with a plastic plate sealer. The plate was then mixed (by vortex) for 10 seconds, and then equilibrated to incubation temperature (room temperature) for 5 minutes. 50 μL 4 mg/mL ONPG was then added. When a significant yellow color developed, 90 μL stop solution (1M Na2CO3) was added and the reaction time recorded. The resulting color intensity for each sample was then read at A420 and A550. In addition, the cell density of each culture providing the 16 μL of cells used in each sample was read at A600. Miller Units were calculated as follows: • 1000 * ((A420−(1.75*A550))/(time(in minutes) *0.1 * A600)). Alkaline Phosphatase Assas\n(§4) For this assay we prepared SIGMA FAST (p-nitrophenyl phosphate (PNPP) substrate, from Sigma-Aldrich Corp., St. Louis, Mo.) by adding one of each tablet provided by the manufacturer (one table each PNPP and Tris; stored at −20° C.) to 20 mL ddH2O, giving a final concentration of 1 mg/mL PNPP and 0.2M Tris. At each time point, for each sample, 50 μL SIGMA FAST substrate was combined with 5 μL of cells. The result was then incubated at room temperature for 30 minutes. The resulting color intensity for each sample was then read at A410. In addition, the cell density of each culture providing the 5 μL of cells used in each tested sample was read at A600 (i.e. the cell cultures were read in a 96 well plate). The value of A410/(0.1 * A600) was then calculated to express alkaline phosphatase activity/cell.\nAnthranilate, like benzoate, is an inexpensive low toxic compound that can be utilized by P. fluorescens, making it an ideal compound to investigate as an inducer. […]. […] Expansion of the promoter clone to include the transcriptional activator gene 5′ of the antA open reading frame (ORF) increased expression levels of the lacZ fusion. […]"}, "[2]": {"system": "Pant-Pben tandem promoter", "experiment": "Pant-Pben tandem promoter reporter gene induction (lacZ)", "settings": "for induction of the Pant-Pben tandem promoter: P. fluorescens", "method": "as §1, §2, §3\nHowever, unlike the catabolite-repressed Pben promoter, the activity of the Pant promoter was not inhibited during fermentation A fusion of these two promoters was created by linking them together, as shown in SEQ ID NO:3, i.e. by cloning a fragment antR and Pant, upstream of the Pben278 promoter fused to lacZ."}, "[3]": {"system": "Pben promoter (Pben509, Pben278)", "experiment": "Benzoate promoter (Pben) reporter gene induction (lacZ β-galactosidase / phoA alkaline phosphatase)", "settings": "for induction of the benzoate promoter (Pben509, Pben278): P. fluorescens MB101, reporter gene lacZ or phoA", "method": "as §1, §2, §3, §4\nBenzoate-inducible promoter activity was tested by fusing the DNA fragment containing the putative promoter sequence of Pben509, or of Pben278 (described below), upstream of an easily assayable reporter gene (i.e. either lacZ, which encodes β-galactosidase and was used as the chief reporter gene, orphoA). The resulting plasmid was transformed into P. fluorescens MB101. […]"}}, "note": "Entries after “also recorded” stand apart in the source; their conditions may differ.", "data": [{"molecule": "Nc1cc(Cl)ccc1C(=O)O", "note": "[4-chloro-anthranilate]", "values": [{"measurement": "induction of the anthranilate promoter", "setting": "[1]", "result": "inducible"}]}, {"molecule": "Nc1ccccc1C(=O)O", "note": "[anthranilic acid]", "values": [{"measurement": "induction of the anthranilate promoter", "setting": "[1]", "result": "inducible"}, {"measurement": "induction of the Pant-Pben tandem promoter", "setting": "[2]", "result": "inducible"}]}, {"molecule": "Nc1ccccc1C(=O)[O-].[Na+]", "note": "[sodium anthranilate]", "values": [{"measurement": "induction of the anthranilate promoter", "setting": "[1]", "result": "inducible"}, {"measurement": "induction of the Pant-Pben tandem promoter", "setting": "[2]", "result": "inducible"}, {"measurement": "strength of the tandem antR/Pant-Pben278 construct upon induction, compared with component promoter alone", "setting": "[2]; lacZ fusion, in the presence of glucose", "result": "improved"}]}, {"molecule": "Oc1ccccc1O", "note": "[catechol]", "values": [{"measurement": "induction of the benzoate promoter (Pben509, Pben278)", "setting": "[3]", "result": "fail to induce"}]}, {"molecule": "Cc1cccc(C(=O)O)c1", "note": "[m-toluic acid]", "values": [{"measurement": "induction of the benzoate promoter (Pben509, Pben278)", "setting": "[3]", "result": "inducible"}]}, {"molecule": "Nc1ccc(Cl)cc1C(=O)O", "note": "[5-chloro-anthranilate]", "values": [{"measurement": "induction of the anthranilate promoter", "setting": "[1]", "result": "inducible"}]}, {"molecule": "O=C([O-])c1ccccc1.[Na+]", "note": "[sodium benzoate]", "values": [{"measurement": "induction of the benzoate promoter (Pben509, Pben278)", "setting": "[3]", "result": "inducible; also recorded: show β-galactosidase or alkaline phosphatase activity"}, {"measurement": "induction of the benzoate promoter (Pben509, Pben278)", "setting": "[3]; listed as benzoate", "result": "benzoate was indeed the inducer for Pben"}, {"measurement": "induction of expression of exogenous genes, benzoate promoter", "setting": "[3]; induced with 5 mM sodium benzoate", "result": "about 250 fold"}]}, {"molecule": "Cc1ccccc1C(=O)O", "note": "[o-toluate]", "values": [{"measurement": "induction of the anthranilate promoter", "setting": "[1]", "result": "induce this promoter as well as does anthranilate"}, {"measurement": "induction of the Pant-Pben tandem promoter", "setting": "[2]", "result": "induce this promoter as well as does anthranilate"}]}, {"molecule": "Nc1c(Cl)cccc1C(=O)O", "note": "[3-chloro-anthranilate]", "values": [{"measurement": "induction of the anthranilate promoter", "setting": "[1]", "result": "inducible"}]}, {"molecule": "Nc1cccc(Cl)c1C(=O)O", "note": "[6-chloro-anthranilate, 6-chloroanthranilate]", "values": [{"measurement": "induction of the anthranilate promoter", "setting": "[1]", "result": "inducible"}]}, {"molecule": "O=C(O)/C=C\\C=C/C(=O)O", "note": "[cis, cis-muconate]", "values": [{"measurement": "induction of the benzoate promoter (Pben509, Pben278)", "setting": "[3]", "result": "fail to induce"}]}, {"molecule": "O=C(O)c1ccccc1", "note": "[benzoic acid]", "values": [{"measurement": "induction of the benzoate promoter (Pben509, Pben278)", "setting": "[3]", "result": "inducible"}, {"measurement": "induction of the Pant-Pben tandem promoter", "setting": "[2]", "result": "inducible"}]}, {"molecule": "Pant promoter with multi-copy antR: anthranilate-inducible promoter of P. fluorescens with the AntR activator coding sequence, a1-c1395 of SEQ ID NO:13 (nucleic acid, Construct containing the pDOW1057 Pant-Pben tandem promoter) DNA: AGCTTGCATGCCTGCAGGTTTAAACAGTCGACTCTAGACTTAATTAACTATCGCAGGCAAGCCAGCTCCCACAGATTGTTTTTCATCCAGTTCAAGTAATGCGCAGGCGCTTGCGCTGCAATGTCTGGCTGGGCGACTCATCGAACAGCTTGCGGTACTCCGCCGAAAACCGCCCCAAATGCGTAAACCCCCAACCCAGGGCGATTTCAGAGATGGTGCGGATCGAGCCCTGCTCCAGAATTTCTTGGCGCACCGCCCCCAACCGATGCTTCTTCAAATACGACATGGGCGACAGTGCGAAGTACTTGCGAAACGCATCGAACAGTTTGAAACGCGACACGCCCGCCGCCGCTTCCAGGTCTTCCAGGTGCAGCGCTTCACGGGCGTTGTCGTGGATAAATTGCCGCGCGCGGATCAGGTAGTGCGGCAGTTTCACCCCCAGCACGTCGCGCAGTTCTTCGGAGTAGTTATTCGGTTGGGCCAGGATCAGGCCCTTGATCAGCGAGCTTTCCAGGTCGCGAGTAAACGCCGCCTGCTCGTACAGTTCGCTGCTGCGCTCCAGTTCGGCGATGAAATAACGCGCCATGCGCCACCACGAAGCCGGTGCTCCGTCCACAGCATCCATCACCGACTCAAAGCGCAGCGGCGCATCAATGGGCCGTTGCAGCAAACCTTCCAGCGACTCGCTCATCGCCGCACGGGTGATTACCACCTGCAACTTGCGGCAGTCACCGGAAATCGCCAGCACCTGATGCTCATTGGGCGAAATGATCACGCCTTGGTCGCGGTTGGAACTGAGACGTTCACCGTTCTTGCTCAGCTCCTGCTCGCCCACCAGTGGCAGGCTCAAGCTGTAGCTGCTGAAGTGCTCGGCGTCTTCGATGTCGATGGTCACATCAGTGCCGTACTCGATCACGCCCAGGGTGGTGGCGCGGGATTTGAACACGTTGGCGCTGTGGTGAAAGCGCAGGCGCTCGGGGGTTGCCGTCGCCAGGCGATGGGGCCCGCAGATGCCGGACATCCAGCTGCGCGCGCCTTCCAGGTCGAAGCGTTGAATATGAATATCGCGTGTCTGACTAGTCATCAGGGTGCACCCACGGCGGTTAGGCGTTTGCGCGCTCTGACGGCGCGTCGTTGAACCTCGACAGCAAGTTCCAGGCCACGCCAGTGCAGTTCTCACTGGGTGGATAGCAACGGTCGACTATGTGGATAAACCCCAGAGTTTTGCGACCATCGCCCGCCATCACAGTAGCGCATGCCGTCACCGGCGCGCACCGTCATGGGTATTTGCCGCCCAACTTTGCGGCCTACGTTCCCCCATTAAGCGGATAGCCCGCCACCGCATCGCAGCCGCTTAATGGCTCACCGTTTAGCCATGATCAAAAGGTGCCTCCC", "values": [{"measurement": "relative strength of promoter versus Pben278 promoter", "setting": "[1]; Pant with multi-copy antR", "result": "approximately ⅕"}]}]}
